Data on 19 compounds can be found in ChEMBL document CHEMBL4385621, “Synthesis and in vitro cytotoxicity evaluation of β-carboline-combretastatin carboxamides as apoptosis inducing agents: DNA intercalation and topoisomerase-II inhibition” (Bioorg Med Chem, 2019).

The term IC50 denotes the concentration needed to halve the response being measured. Broadly, the Kd is the equilibrium constant for the complex coming apart.

The subject of one test is HeLa. Kind of test: Antiproliferative activity against human HeLa cells assessed as reduction in cell viability after 48 hrs by SRB assay. The format is functional, cell-based. (The SRB assay estimates cell density from bound dye.)
The test system of the next test is DU-145. In words: Antiproliferative activity against human DU145 cells assessed as reduction in cell viability after 48 hrs by SRB assay. The settings on record: DU-145, 48 h. The format is functional, cell-based.
The next test relates to A549. In words: Antiproliferative activity against human A549 cells assessed as reduction in cell viability after 48 hrs by SRB assay. The format is functional, cell-based. The settings on record: A549, 48 h.
The target in test [1] is DNA topoisomerase II (Homo sapiens) (UniProt P11388+Q02880). In words: Inhibition of human topoisomerase-2 assessed as reduction in decatenation of kDNA at 10 uM incubated for 30 mins by ethidium bromide staining based agarose gel electrophoresis method. The format is protein assay.
Test [2] concerns Calf thymus DNA. In words: Binding affinity to calf thymus DNA assessed as dissociation constant after 5 mins by UV-Visible spectroscopic method. The format is nucleic-acid assay, Bos taurus.
The test system of test [3] is Calf thymus DNA. In words: Binding affinity to calf thymus DNA assessed as decrease in emission peak intensity by spectrofluorimetric method. The format is nucleic-acid assay. The settings on record: Bos taurus.
The subject of test [4] is Calf thymus DNA. Kind of test: Binding affinity to calf thymus DNA assessed as decrease in emission peak intensity using varying DNA level by spectrofluorimetric method. Particulars: Bos taurus. It counts as nucleic-acid assay.
For test [5], the system named is Calf thymus DNA. Kind of test: Binding affinity to calf thymus DNA assessed as hypochromicity after 5 mins by UV-Vis absorption spectral analysis. It counts as nucleic-acid assay. The settings on record: Bos taurus.
For test [6], the system named is Calf thymus DNA. Kind of test: Binding affinity to calf thymus DNA by circular dichroism spectropolarimetric analysis. Particulars: Bos taurus. It counts as nucleic-acid assay. Background: CD spectra are sensitive to the conformation of chiral molecules.

Structures are written as SMILES. Active and inactive are the calls of the source. The calls are words filed in the database; no cut-off is given here.

Consider `COc1ccc(-c2nc(CNC(=O)/C(=C/c3ccc(C(F)(F)F)cc3)c3cc(OC)c(OC)c(OC)c3)cc3c2[nH]c2ccccc23)cc1`, for which the results for the IC50 with HeLa, in the test with DU-145 and in the test with A549 were 3.16 µM, 1.37 µM and 1.17 µM, respectively. Also, the inhibition result in test [1] is “Active”. Moreover, the equilibrium dissociation constant (Kd) in the test on Calf thymus DNA [2] is 112 µM. In addition, the outcome in the test on Calf thymus DNA [3], with Calf thymus DNA [4], with Calf thymus DNA [5] and in the test with Calf thymus DNA [6] was Active.
In the case of `COc1ccc(/C=C(/C(=O)NCc2cc3c([nH]c4ccccc43)c(-c3cccc(F)c3)n2)c2cc(OC)c(OC)c(OC)c2)cc1O`, the IC50 was determined as 9.68 µM in the test on HeLa, 1.87 µM with DU-145 and 1.62 µM in the test with A549.
`COc1ccc(-c2nc(CNC(=O)/C(=C/c3ccc(C)cc3)c3cc(OC)c(OC)c(OC)c3)cc3c2[nH]c2ccccc23)cc1`: the concentration for half-maximal inhibition (IC50) in the test on HeLa amounted to 14.5 µM; in the test on DU-145, 2.57 µM; in the test on A549 it was 1.38 µM.
Taken in the same sequence, the figures for `COc1cc(/C(=C\c2ccc(C(F)(F)F)cc2)C(=O)NCc2cc3c([nH]c4ccccc43)c(-c3cc(OC)c(OC)c(OC)c3)n2)cc(OC)c1OC` were 14.7 µM, 2.04 µM and 1.11 µM.
Taken in the same sequence, the figures for `COc1ccc(-c2nc(CNC(=O)/C(=C/c3ccc(OC(C)=O)c(OC)c3)c3cc(OC)c(OC)c(OC)c3)cc3c2[nH]c2ccccc23)cc1` were 11.9 µM, 9.78 µM and 5.49 µM.
Taken in the same sequence, the figures for `COc1ccc(-c2nc(CNC(=O)/C(=C/c3ccc(OC)c(OC(C)=O)c3)c3cc(OC)c(OC)c(OC)c3)cc3c2[nH]c2ccccc23)cc1` were 8.41 µM, 3.54 µM and 2.75 µM.
Take `COc1ccc(-c2nc(CNC(=O)/C(=C/c3ccc(O)c(OC)c3)c3cc(OC)c(OC)c(OC)c3)cc3c2[nH]c2ccccc23)cc1`: the figures for the IC50 in the test with HeLa, in the test on DU-145 and with A549 were 6.31 µM, 2.81 µM and 1.79 µM, respectively.
Taken in the same sequence, the figures for `COc1ccc(/C=C(/C(=O)NCc2cc3c([nH]c4ccccc43)c(-c3cc(OC)c(OC)c(OC)c3)n2)c2cc(OC)c(OC)c(OC)c2)cc1OC(C)=O` were 18 µM, 7.06 µM and 1.16 µM.
Taken in the same sequence, the figures for `COc1cc([C@@H]2c3cc4c(cc3[C@@H](O[C@@H]3O[C@@H]5CO[C@@H](C)O[C@H]5[C@H](O)[C@H]3O)[C@H]3COC(=O)[C@H]23)OCO4)cc(OC)c1O` [ETOPOSIDE] were 2.66 µM, 2.47 µM and 2.17 µM.
Take `CCOc1ccccc1/C=C(/C(=O)NCc1cc2c([nH]c3ccccc32)c(-c2ccc(OC)cc2)n1)c1cc(OC)c(OC)c(OC)c1`: the IC50 turned out to be 16.3 µM in the test on HeLa, 10.9 µM in the test with DU-145 and 11.7 µM in the test on A549.
Taken in the same sequence, the figures for `COc1cc(/C(=C\c2ccc(Cl)cc2)C(=O)NCc2cc3c([nH]c4ccccc43)c(-c3cc(OC)c(OC)c(OC)c3)n2)cc(OC)c1OC` were 17.6 µM, 8.1 µM and 6.59 µM.
Taken in the same sequence, the figures for `COc1ccc(-c2nc(CNC(=O)/C(=C/c3cc(OC)cc(OC)c3)c3cc(OC)c(OC)c(OC)c3)cc3c2[nH]c2ccccc23)cc1` were 21.7 µM, 3.09 µM and 2.76 µM.
`COc1cc(/C(=C\c2ccc(C)cc2)C(=O)NCc2cc3c([nH]c4ccccc43)c(-c3cc(OC)c(OC)c(OC)c3)n2)cc(OC)c1OC`: the IC50 in the test on HeLa is 4.46 µM; in the test on DU-145, 2.63 µM; with A549 it was 1.12 µM.
Taken in the same sequence, the figures for `COc1ccc2c(c1)[nH]c1c(C)nccc12` [HARMINE] were 9.66 µM, 9.63 µM and 5.89 µM.
Consider `COc1cc(/C=C(/C(=O)NCc2cc3c([nH]c4ccccc43)c(-c3cccc(F)c3)n2)c2cc(OC)c(OC)c(OC)c2)cc(OC)c1OC`, for which the 50% inhibitory concentration (IC50) in the test with HeLa worked out at 23.8 µM; in the test with DU-145 it was 9.84 µM; in the test on A549, 12.3 µM.
Taken in the same sequence, the figures for `COc1ccc(-c2nc(CNC(=O)/C(=C/c3cccc(F)c3)c3cc(OC)c(OC)c(OC)c3)cc3c2[nH]c2ccccc23)cc1` were 27.6 µM, 4.07 µM and 3.54 µM.
Taken in the same sequence, the figures for `COc1cc(/C=C(/C(=O)NCc2cc3c([nH]c4ccccc43)c(-c3cc(OC)c(OC)c(OC)c3)n2)c2cc(OC)c(OC)c(OC)c2)ccc1O` were 40.7 µM, 13.3 µM and 5.27 µM.
Taken in the same sequence, the figures for `COc1cc(/C(=C\c2ccc(C)cc2)C(=O)NCc2cc3c([nH]c4ccccc43)c(-c3cccc(F)c3)n2)cc(OC)c1OC` were 14 µM, 1.81 µM and 1.31 µM.
In the case of `COc1cc(/C=C(/C(=O)NCc2cc3c([nH]c4ccccc43)c(-c3cccc(F)c3)n2)c2cc(OC)c(OC)c(OC)c2)ccc1O`, the figures for the IC50 with HeLa, in the test with DU-145 and with A549 were 19.1 µM, 2.44 µM and 2.55 µM, respectively.
